What was measured:
[1] = tested on: carrageenan-induced paw edema in the rat; assay: In Vivo Assay--Rat Carrageenan-Induced Paw Edema; design: species or system rat (male Sprague-Dawley); details: intraperitoneal, 6 hours; FIG. 3
Text: The model, which provides a tool for investigating the effect of compounds on paw intimation, is described in the following reference: Bartlett, R. R., et al. (1993), "Effects of leflunomide on immune responses and models of inflammation," Springer Semin Immunopathol 14:381-394. It essentially consists of the following:
1. Rats: Male Sprague-Dawley, approximately 165 g obtainable from Harlan Sprague Dawley, Indianapolis, Ind., USA;
a. Measure the volume of the left hind paw by strain gauge/fluid immersion;
b. Inject 100 μL of 1% carrageenan in saline intradermally into the left hind foot pad;
c. Inject vehicles or test compounds dissolved in either saline (CPR-2015) or 50% saline and 50% ethanol (indomethacin, dexamethasone, and CPR-2014) intraperitoneally, placing 3-5 rats in each treatment group;
d. Six hours later, measure the volume of the left hind paw by strain gauge/fluid immersion;
e. Calculate average percent increase in paw volume for each treatment group.

[2] = tested on: PMA-induced inflammation in mouse ears; assay: In Vivo Assay--Mouse Ear model, PMA-induced inflammation; design: species or system mouse (male CD-1); details: concentration tested 5%, topical to ear, 6 hours; FIG. 1
Method: A common in vivo model for the evaluation of anti-inflammatory agents is PMA-induced inflammation in mouse ears. This method is described in "Pharmacological Methods in the Control of Inflammation," Joseph Y. Chang and Alan J. Lewis (eds), Alan R. Liss, Inc., New York, pp 221-223 (1989). In this assay, edema, which is a characteristic of inflammation, is quantified by determining ear thickness or ear weight approximately 6 hours after applying PMA to the ear.
1. Mice: Male CD-1, 21-24 g (Product Number 3002) obtainable from Harlan Sprague Dawley, Indianapolis, Ind., USA.
a. Prepare 0.01% (w/v) PMA in a mixture of equal volumes of acetone and ethanol;
b. Prepare 0.01% (w/v) PMA and 5% (w/v) test compound in a mixture of equal volumes of acetone and ethanol;
c. Divide 12 mice into 4 groups of 3 mice each;
d. Treat the first group of mice by applying 20 μL of a mixture of equal volumes of acetone and ethanol (vehicle) to the left ear using a micropipetter;
e. Treat the second group of mice by applying 20 μL of PMA solution to the left ear;
f. Treat the other two groups of mice by applying 20 μL of PMA/test compound solution to the left ear;
g. Wait 6 hours and euthanize the mice in a CO2 chamber;
h. Cut the ears and punch out circles of 6-mm diameter; and
i. Measure the weight of three appropriate ear punches in the same group together.

[3] = tested on: Mouse Macrophage RAW 264.7; assay: In Vitro Chemiluminescence Assay: inhibition of respiratory burst in PMA-stimulated mouse macrophage RAW 264.7; assay type: cell-based
Text: The cells are capable of phagocytosis and undergo an oxidative burst in response to appropriate signals. Agents that inhibit the activation of these cell in vitro are therefore inhibitors of critical steps in inflammatory processes.
Activation of macrophages and other phagocytic cell types initiates a cascade of actions that include increased oxygen consumption (respiratory burst) and production of oxygen radicals. These events can be measured m a variety of ways, including chemiluminescence based on the addition of luminol (see M. A. Trush et al, (1978), The generation of chemiluminescence by phagocytic cells, Methods in Enzymology 56:462-494). Because chemiluminescence is induced by the increased production of oxygen radicals that are thought to be important in intracellular killing of bacteria, chemiluminescence has long been used as an index of phagocytic cell activity. In addition, oxygen radical production is associated with inflammatory responses and may have adverse consequences in non-infectiousinflammation. For this reason, macrophage activation is of critical importance in studies of the inflammatory process. Agents that reduce macrophage activation are likely to have utility as anti-inflammatory agents.
1. Cell line: Raw 264.7 (ATCC TIB-71, attachment dependent).
2. Culture medium: Dulbecco's Modified Eagle's Medium (DMEM) with 10% Fetal Bovine Serum (FBS).
3. Standard protocol for culturing cell lines: in T-75 or T-150 flasks; 37° C.; 95% air, 5% CO2; 100% humidity;
a. Cell line is passaged when approximately 80% confluent; with trypsin (1 mg/mL) and ethylenediaminetetraacetic acid (EDTA) (1 mM in Ca-Mg free Hank's balanced salt solution); at a 1:4 to 1:5 split;
b. All procedures are performed aseptically in a class II biological safety cabinet using standard BL-2 containment procedures. In order to prevent genetic drift in stock cell lines, fresh cultures are prepared at approximately monthly intervals with cells thawed from liquid nitrogen storage.
a. After cell passage, count cells with a hemacytometer;
b. Adjust cell concentration to approximately 1,000,000 cells per mL;
c. Suspend cells in DMEM lacking phenol red and without FBS;
d. Pipette 1 mL of cell suspension into a standard luminometer cuvette (12×75 mm), commercially obtainable from Analytical Luminescence Laboratories, San Diego, Calif., USA;
e. Add luminol to final concentration of 0.2 mM;
f. Add test compound dissolved in phosphate buffered saline (PBS) for final concentration levels ranging from 0 to 10 μM;
g. Add 100 nanograms of phorbol myristate acetate (PMA): and
h. Wait 1 minute and read photo counts (i.e., luminescence) on a Monolight 2010 luminometer available from Analytical Luminescence Laboratories, San Diego.
Background--no test compound present; no PMA present;
Control--no test compound present;
Calculate: [formula] where L is luminescence. 6.

[4] = tested on: TNB-induced inflammation in rat colon; assay: In Vivo Assay--Rat Ulcerative Colitis Model (TNB-induced); design: species or system rat (male Sprague-Dawley); details: 150 mg/kg, rectal, once a day for 5 days; FIG. 2
Text: The model described in this section provides a tool for investigating the effect of compounds in colonic intimation. This model and the experimental methods are described in the following reference: Luck, Michael S. and Bass, Paul, (1993), "Effect of Epidermal Growth Factor on Experimental Colitis in the Rat," J. Pharmacol. Exp. Therap. 264:984-990. In this assay, inflammatory lesions in the rat colon are induced by the intracolonic administration of 2,4,6-trinitrobenzenesulfonic acid.
1. Rats: Male Sprague-Dawley, 185-195 g obtainable from Harlan Sprague Dawley, Indianapolis, Ind., USA;
a. Prepare 100 mg/mL 5-aminosalicylic acid (5-ASA), 50 mg/mL CPR-2015, and 150 mg/mL CPR-2015 in saline;
b. Divide 34 rats into 4 groups of 8 rats each and one group of two rats;
c. Leave the group with two rats completely untreated;
d. Treat the other four groups of rats with 200 μl of Saline, 500 μl of 100 mg/mL 5-ASA, 200 μl of 50 mg/mL CPR-2015, or 200 μl of 150 mg/mL CPR-2015. These treatments are administered rectally with an 8-cm catheter;
e. After one hour, treat the above four groups of rats rectally with 500 μl of 100 mg/mL 2,4,6-trinitrobenzenesulfonic acid (TNB) in 30% ethanol and 70% saline;
f. Repeat the treatments described in paragraph 2(d) once a day for a total of 5 days;
g. On the 6th day, euthanize the rates in a CO2 chamber; and
h. […]

Row | SMILES | inhibition of carrageenan-induced edema in rat paw [1] | inhibition of PMA-induced inflammation in mouse ear [2] | inhibition at 0.1 µM ([3]; Mus musculus, RAW264.7, Concentration 0.1 µM, PMA-stimulated RAW 264.7, luminol chemiluminescence) | inhibition at 0.3 µM ([3]; Mus musculus, RAW264.7, Concentration 0.3 µM, PMA-stimulated RAW 264.7, luminol chemiluminescence) | inhibition at 1 µM ([3]; Mus musculus, RAW264.7, Concentration 1 µM, PMA-stimulated RAW 264.7, luminol chemiluminescence) | inhibition at 3 µM ([3]; Mus musculus, RAW264.7, Concentration 3 µM, PMA-stimulated RAW 264.7, luminol chemiluminescence) | inhibition at 10 µM ([3]; Mus musculus, RAW264.7, Concentration 10 µM, PMA-stimulated RAW 264.7, luminol chemiluminescence) | inhibition of PMA-induced macrophage activation ([3]; at concentrations above 0.3 μM) | inhibition of TNB-induced inflammation in rat colon [4]
1 | CCCCCCCCCCCCCCCC(=O)Nc1ccc(O)c(C(C)=O)c1 [CPR-2014, 1-(5-hexadecanamido-2-hydroxy-phenyl)-ethanone] | marked inhibition | partially inhibited |  |  |  |  |  |  | 
2 | CCCCCCCCCCCCCCCC(=O)Nc1ccc(OP(=O)([O-])OCC[N+](C)(C)C)c(C(C)=O)c1 [CPR-2015, (o-acetyl-p-N-hexadecanamido-phenyl)-O-phosphocholine] | marked inhibition | completely inhibited | 13% | 63% | 94% | 97% | 99% | marked inhibition | marked inhibition

From patent US5661138A, “(o-Acyl-p-N-acylamino-phenyl)-O-phosphoethanolamines” (Clarion Pharmaceutical, Inc., priority 1996, dated 1997)
